# Positions of bridges follow the written chain, without caps; N, C: chain ends. Non-standard residues stand in square brackets, D forms with d. Residues, ends and D or L forms follow the SMILES beside them. dCha = N[C@H](CC1CCCCC1)C(=O)O
# Assays:
# [1] = tested on: human primary dermal fibroblasts; test: Cytotoxicity, MTS-based assay; assay type: cell-based; conditions: up to 50 μg/mL, 24 or 48 h, three independent experiments in triplicate
# Procedure: 4 Cytotoxicity evaluation of analogue 12. Human primary dermal fibroblasts (A), liver cell line HepG2 (B), and kidney cell line HEK293T (C) cells (5 × 10^3 cells/well in 96-well plates) were treated with increasing concentrations of analogue 12 or 1 μM staurosporine (STS, used as a positive toxicity control) for 24 or 48 h, as indicated. Viability of cells was determined using an MTS-based assay. Results (% cell viability) are the mean ± SD of three independent experiments performed in triplicate. (D) Freshly collected human red blood cells (RBCs) were exposed to increasing concentrations of 12 or Triton X-100 (TX), as indicated, for 1 h. Hemolytic activity (% hemolysis) was determined by spectrophotometrically measuring the release of hemoglobin compared to that with TX (used as a positive control). Results are the mean ± SD of 4 independent experiments performed in duplicate using blood samples from four different anonymous healthy donors. […]
# Bacterial cultures were grown overnight on Mueller-Hinton Agar (MHA) plates and adjusted to a final inoculum of 10^5 – 10^6 CFU/mL. […] MIC values were determined in the media contain ing polysorbate 80 (0.002%, v/v) to prevent non -specific adsorption of the peptides to plastic surfaces. […] All the experiments were performed in two independent duplicates and the MIC was determined as the lowest concentration in which no visible growth was observed. […]
# MRSA ATCC 33591 = test: Time-kill kinetics; assay type: cell-based, Staphylococcus aureus; conditions: 2.5 μg/mL (10× MIC), MHB with 0.002% polysorbate 80, 37 °C, two independent experiments in duplicate
# Procedure: Early-stage time-kill kinetics for analogue 12 against MRSA ATCC 33591 were performed using vancomycin as a control, following the protocol described in Section VIII, Supporting Information.
# 3 Time-kill kinetics of Novltex analogue 12 and clinical antibiotic (vancomycin) against MRSA 33591. […] Results are the mean ± SD of two independent experiments performed in duplicate.
# MICs were performed as previously reported 4. For MIC testing all peptides were dissolved in DMSO.
# Bacterial cultures were grown overnight on Mueller-Hinton Agar (MHA) plates and adjusted to a final inoculum of 10^5 – 10^6 CFU/mL. 100 µl of ino culum in Meuller -Hinton broth (MHB) was mixed with equal volume of peptides (dissolved in MHB) at 2x their concentration in a 96 well plate . For daptomycin MIC determination, the same protocol was followed with the addition of 50 mg/L calcium chloride to the medium. MIC values were determined in the media contain ing polysorbate 80 (0.002%, v/v) to prevent non -specific adsorption of the peptides to plastic surfaces. The final peptides concentrations ranged from 0.0625 – 32 µg/mL. The 96 well plates were then incubated at 37 °C for 24 h. All the experiments were performed in two independent duplicates and the MIC was determined as the lowest concentration in which no visible growth was observed.
# Antibiotics MIC break points ( µg/mL)
# Table. […]
smiles,measurement,setting,value
"CC(C)C[C@@H]1NC(=O)[C@H](C)NC(=O)[C@H](NC(=O)[C@H](CO)NC(=O)[C@@H](CCCCN)NC(=O)[C@@H](CC2CCCCC2)NC(=O)[C@@H](N)Cc2ccccc2)[C@H](C)OC(=O)[C@H](CC(C)C)NC1=O [analogue 12, Leu2Cha–Novltex] (H-F[dCha][dK]S[dT]ALL; ester 5-C)","cytotoxicity (cell viability), primary dermal fibroblasts",[1],no major cytotoxicity
same,time to significant bacterial killing,MRSA ATCC 33591,≤ 6 h

# Reference: publication PMC12481569, “Novltex: A New Class of Antibiotics with Potent Activity against Multidrug-Resistant Bacterial Pathogens–Design, Synthesis, and Biological Evaluation” (Journal of Medicinal Chemistry, 2025)
